In PMC10611828 (European Journal of Nuclear Medicine and Molecular Imaging, 2023):

How the values were obtained:
[1] = design: method as in PMID 35027371, PMID 28644732; conditions: compared with RM2; cited from earlier work
[2] = test system: PC-3 cells; experiment: Uptake and specificity in PC-3 cells; type: cell-based, human; conditions: 1 h 37 °C
Procedure: PC-3 cells were seeded at 2.5 × 10^5 cells/well into 12 well plates 18–24 h prior to the experiment. […] Hereafter, cells were washed twice with PBS and subsequently lysed with 0.1 M NaOH for 20 min at room temperature (RT). The cell lysates were collected and measured using a gamma counter (1480 WIZARD automatic γ-counter, PerkinElmer, The Netherlands). […] Hereafter, cells were washed twice with cold PBS and lysed with 0.1 M NaOH for 20 min at RT. The cell lysates were collected and measured to determine the amount of radioactivity in a gamma counter. To correct for cell density, cells from two separate wells were counted (Countess counter, Invitrogen, The Netherlands), and data was expressed as percentage of added dose (AD) per 2.5 × 10^5 cells.

[3] = design: method as in PMID 31482426; conditions: all patients; cited from earlier work
[4] = Stability in mouse serum at 37 °C (radio-HPLC); type: in vitro ADME; conditions: 0 h
Procedure: (§1) The ^177Lu-labeled peptides were incubated in 300-μL phosphate buffered saline (PBS; Gibco, ThermoFisher, The Netherlands) at 37 °C, and their stability was verified after 1, 4, 24, 48, and 72 h by radio-HPLC (Supplementary Fig. 2). The stability in serum was determined by incubating the radiolabeled compounds into 300 μL of mouse serum (Invitrogen, USA) or human serum (Sigma Aldrich, USA) at 37 °C (Supplementary Fig. 3, 4). At each time point post-incubation, 35 μL of the mixture was added to an Eppendorf tube, and the proteins were precipitated by adding an equal volume of acetonitrile. The tubes were centrifuged at 16,000 rpm, 4 °C for 20 min, and the stability was monitored by radio-HPLC, expressed as the RCP at the different time points.

[5] = Stability in PBS at 37 °C (radio-HPLC); type: physicochemical
Procedure: as §1

[6] = Stability in human serum at 37 °C (radio-HPLC); type: in vitro ADME; conditions: 0 h
Procedure: as §1

## CC(C)CC(CC(C)C)NC(=O)[C@H](Cc1cnc[nH]1)NC(=O)CNC(=O)[C@@H](NC(=O)[C@H](C)NC(=O)[C@H](Cc1c[nH]c2ccccc12)NC(=O)[C@H](CCC(N)=O)NC(=O)[C@@H](Cc1ccccc1)NC(=O)COCC(=O)Nc1ccc(CNC(=O)CN2CCN(CC(=O)O)CCN(CC(=O)O)CCN(CC(=O)O)CC2)cc1)C(C)C [NeoB, DOTA-pADA-D-Phe-Gln-Trp-Ala-Val-Gly-His-NH-CH[CH2-CH(CH3)2]2]
[1]
  lipophilicity (structure and LogD): more lipophilic

## CC(C)C[C@H](NC(=O)C[C@H](O)[C@H](CC(C)C)NC(=O)[C@H](Cc1c[nH]cn1)NC(=O)CNC(=O)[C@@H](NC(=O)[C@H](C)NC(=O)[C@H](Cc1c[nH]c2ccccc12)NC(=O)[C@H](CCC(N)=O)NC(=O)[C@@H](Cc1ccccc1)NC(=O)CN1CCC(NC(=O)CN2CCN(CC(=O)O)CCN(CC(=O)O)CCN(CC(=O)O)CC2)CC1)C(C)C)C(N)=O [[^177Lu]Lu-RM2] [metal not drawn]
[2]; 10^-9 M + 10^-6 M Tyr^4-BBN
  uptake in the presence of Tyr^4-BBN: < 1 % AD
[2]; 10^-9 M, per 2.5 × 10^5 cells
  uptake: 10.96 ± 3.46 % AD
[3]
  tolerability in patients: well tolerated
[4]
  intact radiolabeled ligand (RCP): 97.4 ± 0.3%
[5]; 0 h
  intact radiolabeled ligand (RCP): 97.4 ± 0.3%
[5]; 1 h
  intact radiolabeled ligand (RCP): 97.8 ± 0.4%
[5]; 4 h
  intact radiolabeled ligand (RCP): 96.7 ± 0.5%
[5]; 24 h
  intact radiolabeled ligand (RCP): 95.6 ± 0.3%
[5]; 48 h
  intact radiolabeled ligand (RCP): 87.6 ± 0.6%
[5]; 72 h
  intact radiolabeled ligand (RCP): 80.4 ± 0.8%
[6]
  intact radiolabeled ligand (RCP): 97.4 ± 0.3%
